Test results published in the supplement of paper PMC11061612.

Assays:
[1] = compound: C1CC(C1)(C(=O)[O-])C(=O)[O-].N.N.[Pt+2] [Carboplatin]; details: max 10 µM
Summary of the method: (§1)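 Cancer cell lines were dosed for 72 hours (final DMSO typically 0.2%) after 24 hours at 37°C and 5% CO2 in 1536-well plates containing 7.5 μl DMEM/F12 or RPMI with 10% FBS. Viability came from CellTiter-Glo 2.0 luminescence, scaled between blank-well and DMSO-well means, and dose responses were fitted to a two-parameter logistic curve with a non-linear mixed effects model. The single-agent IC50 was obtained from this fit.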

[2] = compound: C1CN(CCC1(C(=O)N[C@@H](CCO)C2=CC=C(C=C2)Cl)N)C3=NC=NC4=C3C=CN4 [AZD5363]; details: max 10 µM
Summary of the method: as §1

[3] = compound: C=CCn1c(=O)c2cnc(Nc3ccc(N4CCN(C)CC4)cc3)nc2n1-c1cccc(C(C)(C)O)n1 [AZD1775]; details: max 3 µM
Summary of the method: as §1

[4] = compound: CC(=O)Nc1cccc(-n2c(=O)n(C3CC3)c(=O)c3c(Nc4ccc(I)cc4F)n(C)c(=O)c(C)c32)c1 [Trametinib]; details: max 1 µM
Summary of the method: as §1

[5] = compound: CC(=O)O[C@H]1C(=O)[C@@]2(C)[C@H]([C@H](OC(=O)c3ccccc3)[C@]3(O)C[C@H](OC(=O)[C@H](O)[C@@H](NC(=O)c4ccccc4)c4ccccc4)C(C)=C1C3(C)C)[C@]1(OC(C)=O)CO[C@@H]1C[C@@H]2O [Paclitaxel]; details: max 3 µM
Summary of the method: as §1

[6] = compound: CC(=O)c1c(C)c2cnc(Nc3ccc(N4CCNCC4)cn3)nc2n(C2CCCC2)c1=O [Palbociclib]; details: max 10 µM
Summary of the method: as §1

[7] = compound: CC(C)n1c(=O)n(C)c2cnc3cc(F)c(-c4ccc(OCCCN5CCCCC5)nc4)cc3c21 [AZD1390]; details: max 0.3 µM
Summary of the method: as §1

[8] = compound: CC1(C)CCC(CN2CCN(c3ccc(C(=O)NS(=O)(=O)c4ccc(NCC5CCOCC5)c([N+](=O)[O-])c4)c(Oc4cnc5[nH]ccc5c4)c3)CC2)=C(c2ccc(Cl)cc2)C1 [Venetoclax]; details: max 1 µM
Summary of the method: as §1

[9] = compound: CC1=C(C(=CC=C1)Cl)NC(=O)C2=CN=C(S2)NC3=CC(=NC(=N3)C)N4CCN(CC4)CCO [Dasatinib]; details: max 2 µM
Summary of the method: as §1

[10] = compound: CC1=CN2[C@@H](C1)C=NC3=CC(=C(C=C3C2=O)OC)OCCCCCOC4=C(C=C5C(=C4)N=C[C@@H]6CC(=CN6C5=O)C)OC [SG3199]; details: max 0.001 µM
Summary of the method: as §1

[11] = compound: CCN(CCO)CCCOc1ccc2c(Nc3cc(CC(=O)Nc4cccc(F)c4)[nH]n3)ncnc2c1 [AZD2811]; details: max 1 µM
Summary of the method: as §1

[12] = compound: CCc1c2c(nc3ccc(O)cc13)-c1cc3c(c(=O)n1C2)COC(=O)[C@]3(O)CC [SN-38]; details: max 0.3 µM
Summary of the method: as §1

[13] = compound: CN(C)CCCOc1ccc(-c2ccc3ncc4c(c3c2)n(C2CCOCC2)c(=O)n4C)cn1 [AZD0156]; details: max 3 µM
Summary of the method: as §1

[14] = compound: CN(CC[C@H](CSC1=CC=CC=C1)NC2=C(C=C(C=C2)S(=O)(=O)NC(=O)C3=CC=C(C=C3)N4CCC(CC4)[C@H](C5=CC=CC=C5C6=CC=C(C=C6)Cl)O)S(=O)(=O)C(F)(F)F)CCO [AZD4320]; details: max 1 µM
Summary of the method: as §1

[15] = compound: COc1cc(Nc2ncc3c(n2)-c2ccc(Cl)cc2C(c2c(F)cccc2OC)=NC3)ccc1C(=O)O [Alisertib]; details: max 10 µM
Summary of the method: as §1

[16] = compound: COc1cc([C@@H]2c3cc4c(cc3[C@@H](O[C@@H]3O[C@@H]5CO[C@@H](C)O[C@H]5[C@H](O)[C@H]3O)[C@H]3COC(=O)[C@H]23)OCO4)cc(OC)c1O [Etoposide]; details: max 10 µM
Summary of the method: as §1

[17] = compound: COc1cc2ncnc(Nc3ccc(F)c(Cl)c3)c2cc1OCCCN1CCOCC1 [Gefitinib]; details: max 10 µM
Summary of the method: as §1

[18] = compound: COc1cccc(OCCCN)c1-c1cc(Nc2cnc(C#N)cn2)n[nH]1 [Prexasertib]; details: max 1 µM
Summary of the method: as §1

[19] = compound: COc1cccc2c1C(=O)c1c(O)c3c(c(O)c1C2=O)C[C@@](O)(C(=O)CO)C[C@@H]3O[C@H]1C[C@H](N)[C@H](O)[C@H](C)O1 [Doxorubicin]; details: max 1 µM
Summary of the method: as §1

[20] = compound: COc1nnc2ccc(N3CCC(c4ccc(OCCN5CCN(C)C(=O)[C@H]5C)cc4)CC3)nn12 [AZD5153]; details: max 1 µM
Summary of the method: as §1

[21] = compound: CS(=O)(=O)CCNCc1ccc(-c2ccc3ncnc(Nc4ccc(OCc5cccc(F)c5)c(Cl)c4)c3c2)o1 [Lapatinib]; details: max 10 µM
Summary of the method: as §1

[22] = compound: C[C@@H](Nc1cc(F)cc(F)c1)c1cc(C(=O)N(C)C)cc2c(=O)cc(N3CCOCC3)oc12 [AZD8186]; details: max 10 µM
Summary of the method: as §1

[23] = compound: C[C@@H](Oc1cc(-c2cnn(C3CCNCC3)c2)cnc1N)c1c(Cl)ccc(F)c1Cl [Crizotinib]; details: max 10 µM
Summary of the method: as §1

[24] = compound: C[C@@H](c1ccc2nccn2c1)n1nnc2ncc(-c3cnn(C)c3)nc21 [Savolitinib]; details: max 1 µM
Summary of the method: as §1

[25] = compound: C[C@@H]1COCCN1C2=NC(=NC(=C2)C3(CC3)[S@](=N)(=O)C)C4=C5C=CNC5=NC=C4 [AZD6738]; details: max 10 µM
Summary of the method: as §1

[26] = compound: Cc1c2c(nn1C)CSCc1cc(n(C)n1)CSc1cc(c3ccccc3c1)OCCCc1c(C(=O)O)n(C)c3c-2c(Cl)ccc13 [AZD5991]; details: max 1 µM
Summary of the method: as §1

[27] = compound: Cc1cc2ncnn2cc1Nc1ncc2c(n1)n(C1CCOCC1)c(=O)n2C [AZD7648]; details: max 10 µM
Summary of the method: as §1

[28] = compound: Cc1nc(-c2cn3c(n2)-c2ccc(-c4cnn(C(C)(C)C(N)=O)c4)cc2OCC3)n(C(C)C)n1 [Taselisib]; details: max 10 µM
Summary of the method: as §1

[29] = compound: Cn1cnc2c(F)c(Nc3ccc(Br)cc3Cl)c(C(=O)NOCCO)cc21 [Selumetinib]; details: max 10 µM
Summary of the method: as §1

[30] = compound: N#Cc1cnc(Nc2cc(NC[C@H]3CNCCO3)c(C(F)(F)F)cn2)cn1 [SRA737]; details: max 10 µM
Summary of the method: as §1

[31] = compound: NC1(c2ccc(-c3nc4ccn5c(=O)[nH]nc5c4cc3-c3ccccc3)cc2)CCC1 [MK-2206]; details: max 10 µM
Summary of the method: as §1

[32] = compound: Nc1ccn([C@@H]2O[C@H](CO)[C@@H](O)C2(F)F)c(=O)n1 [Gemcitabine]; details: max 0.3 µM
Summary of the method: as §1

[33] = compound: O=C(Nc1ccc2[nH]nc(-c3ccncc3)c2c1)[C@@H]1CCN(CC(=O)N2CCN(c3ccc(-c4ncccn4)cc3)CC2)C1; details: max 5 µM
Summary of the method: as §1

[34] = compound: O=C(c1cc(Cc2n[nH]c(=O)c3ccccc23)ccc1F)N1CCN(C(=O)C2CC2)CC1 [Olaparib]; details: max 10 µM
Summary of the method: as §1

[35] = compound: O=c1[nH]cc(F)c(=O)[nH]1 [5-Fluorouracil]; details: max 20 µM
Summary of the method: as §1

Cell Line | IC50, cell viability 72 h [1] | IC50, cell viability 72 h [2] | IC50, cell viability 72 h [3] | IC50, cell viability 72 h [4] | IC50, cell viability 72 h [5] | IC50, cell viability 72 h [6] | IC50, cell viability 72 h [7] | IC50, cell viability 72 h [8] | IC50, cell viability 72 h [9] | IC50, cell viability 72 h [10] | IC50, cell viability 72 h [11] | IC50, cell viability 72 h [12] | IC50, cell viability 72 h [13] | IC50, cell viability 72 h [14] | IC50, cell viability 72 h [15] | IC50, cell viability 72 h [16] | IC50, cell viability 72 h [17] | IC50, cell viability 72 h [18] | IC50, cell viability 72 h [19] | IC50, cell viability 72 h [20] | IC50, cell viability 72 h [21] | IC50, cell viability 72 h [22] | IC50, cell viability 72 h [23] | IC50, cell viability 72 h [24] | IC50, cell viability 72 h [25] | IC50, cell viability 72 h [26] | IC50, cell viability 72 h [27] | IC50, cell viability 72 h [28] | IC50, cell viability 72 h [29] | IC50, cell viability 72 h [30] | IC50, cell viability 72 h [31] | IC50, cell viability 72 h [32] | IC50, cell viability 72 h [33] | IC50, cell viability 72 h [34] | IC50, cell viability 72 h [35]
LU-65 (Non-Small Cell Lung Carcinoma) | > 10000 nM | > 10000 nM | 770 nM | 52.9 nM | 32.1 nM | > 10000 nM | > 300 nM | > 1000 nM | > 2000 nM | > 1 nM | > 1000 nM | 49.1 nM | > 3000 nM | > 1000 nM | > 10000 nM | > 10000 nM | > 10000 nM | 89.6 nM | 341 nM | > 1000 nM | > 10000 nM | > 10000 nM | 7510 nM | > 1000 nM | 3970 nM | > 1000 nM | > 10000 nM | 3010 nM | 1650 nM | 4300 nM | > 10000 nM | > 300 nM | 350 nM | > 10000 nM | > 20000 nM
MIA-PaCa-2 (Pancreatic Carcinoma) | > 10000 nM | > 10000 nM | > 3000 nM | 150 nM | 39.5 nM | > 10000 nM | > 300 nM | > 1000 nM | > 2000 nM | > 1 nM | > 1000 nM | 14.6 nM | > 3000 nM | > 1000 nM | 3490 nM | 2890 nM | > 10000 nM | 67.4 nM | 183 nM | 165 nM | > 10000 nM | > 10000 nM | > 10000 nM | > 1000 nM | 8720 nM | > 1000 nM | > 10000 nM | > 10000 nM | 3370 nM | > 10000 nM | > 10000 nM | 101 nM | 2110 nM | > 10000 nM | > 20000 nM
MLMA (Other Blood Carcinomas) | > 10000 nM | 8830 nM | 144 nM | > 1000 nM | 13.7 nM | > 10000 nM | > 300 nM | 272 nM | 548 nM | > 1 nM | > 1000 nM | 16.3 nM | > 3000 nM | > 1000 nM | 6310 nM | 2200 nM | > 10000 nM | 2.19 nM | 116 nM | 55.5 nM | > 10000 nM | 2940 nM | 9930 nM | > 1000 nM | 4310 nM | > 1000 nM | > 10000 nM | 982 nM | > 10000 nM | 934 nM | 1760 nM | 22.8 nM | > 5000 nM | > 10000 nM | > 20000 nM
